# Reference: publication PMC11842024, “Reversible male contraception by targeted inhibition of serine/threonine kinase 33” (Science (New York, N.Y.), 2024)
# What was measured:
# CLK1 = CLK1 (Homo sapiens, UniProt P49759); experiment: NanoBRET target engagement intracellular kinase assay; assay type: cell-based; design: host or cells: HEK293 (HEK293T cultured)
# Description: (§1) NanoBRET Target Engagement intracellular kinase assay. HEK293T cells were cultured in […]
# (§2) The cell line underwent authentication by short tandem repeat (STR) profiling at Cytogenetics and Cell Authentication Core (CCAC) at MD Anderson Cancer Center. NanoBRET Target Engagement intracellular kinase assay, K-10 assay (Cat. # N2641), K-9 assay (Cat. # N2631), transfection reagent FuGENE HD (Cat. # E2311), transfection carrier DNA (Cat. # E4881), NanoLuc-STK33 fusion vector (Cat. # NV2111), NanoLuc-RET fusion vector (Cat. # NV1951), NanoLuc-CLK1 fusion vector (Cat. # NV1131), NanoLuc-CLK2 fusion vector (Cat. # NV1141), and NanoLuc-CLK4 fusion vector (Cat. # NV1151) were purchased from Promega. The measurement of test compound engagement with cellular target protein was performed in a 384-well format according to manufacturer’s instructions. HEK293 cells were transiently transfected with NanoLuc (STK33, RET, CLK1, CLK2, and CLK4) fusion vectors. After 36 hours of transfection, cells were treated with a fixed concentration of tracer (recommended by Promega) followed by compounds (inhibitors) for 2 hours of incubation. To determine the test compound […]
# (§3) 0.4 nM at a fixed tracer concentration. Staurosporine was measured in parallel as a positive control.
# (§4) Freshly prepared NanoBRET Nano-Glo substrate plus extracellular NanoLuc inhibitor was then added to initiate the subsequent bioluminescence resonance energy transfer (BRET) measurements using a CLARIOstar Plus BMG LABTECH plate reader. Data analysis was done by measuring the ratio of acceptor emission to donor emission (BRET ratio) and normalized by subtracting no-tracer-control-background. IC50 values were obtained by nonlinear regression using a four-parameter equation in GraphPad Prism 7 (San Diego, CA).
# RET = RET (Homo sapiens, UniProt P07949); experiment: as above; assay type: cell-based; design: host or cells: HEK293 (HEK293T cultured)
# Description: as §1, §2, §3, §4
# CLK2 = CLK2 (Homo sapiens, UniProt P49760); experiment: as above; assay type: cell-based; design: host or cells: HEK293 (HEK293T cultured)
# Description: as §1, §2, §3, §4
# CLK4 = CLK4 (Homo sapiens, UniProt Q9HAZ1); experiment: as above; assay type: cell-based; design: host or cells: HEK293 (HEK293T cultured)
# Description: as §1, §2, §3, §4
# male mice = experiment: Fertility analysis and reversibility in male mice; assay type: in vivo
# Description: On the basis of molecular modeling, mouse and human STK33 have identical ATP binding pockets (fig. S19), consistent with evolutionary conservation and function of STK33. To determine the consequences of STK33 inhibition in vivo, we evaluated reproductive outcomes in male mice dosed with CDD-2807. […] In protocol 1, adult male mice (n = 6 per cohort) were treated with vehicle control or CDD-2807 at 15 mg kg^−1 intraperitoneally twice per day for 21 days, subsequently housed continuously with fertile female mice of reproductive age (two per male), and then evaluated at day 45 for effects of CDD-2807 on the male reproductive tract (after the first litter was born) or continued to be housed with the females until day 66 after the completion of the 60-day breeding data collection (fig. S21A). In protocol 2, adult male mice (n = 7 per cohort) were treated with vehicle control or CDD-2807 at 50 mg kg^−1 once per day for 21 days, subsequently housed continuously with females (two per male), and then evaluated at later time points (fig. S21B). […] In month 2, litters were born to all females housed with the six control males (2.0 ± 0 litters per male; 7.25 ± 0.17 pups per female per litter) (Fig. 4A). By contrast, no litters were produced by females housed with males who received CDD-2807 (Fig. 4A). For protocol 2 mice, all seven control males sired litters from both females in month 1 (7.29 ± 0.18 pups per litter per female), whereas only one female became pregnant and delivered a single pup from the seven CDD-2807–treated males (50 mg kg^−1 day^−1) (0.07 ± 0.07 pups per litter per female) (Fig. 4B). […] Thus, CDD-2807 delivery in both protocols induced a contraceptive effect. […]
# Fertility analysis. Sexually mature male C57/129 hybrid mice were randomly assigned to either the vehicle control treatment or the CDD-2807 treatment groups. Drug formulation and injections were as follows: for protocol 1 mice receiving the 15 mg/kg CDD-2807 twice daily dosing had the compound dissolved in DMSO, which was injected at 5% of the final volume in 10% Captisol and water. For protocol 2 mice receiving a single daily dose of 50 mg/kg CDD-2807, the compound was dissolved in DMSO and injected at 5% in 20% Captisol and water. All injections were administered as i.p. injections, and for the 15 mg/kg CDD-2807 and DMSO control mice, the injections were delivered in the morning and the evening. Mice in the 50 mg/kg dosing received i.p. injections once in the evening. Weights were measured daily prior to drug administration and monitored throughout the entirety of the injection period. Injections were given for 21 days prior to introduction of female mice. During the fertility assessment, males were housed continuously with two C57/129 sexually mature females for 45 days to generate approximately two months of fertility data. During the fertility assessment, the total number of pups born per litter sired by each male were counted and the total number of litters and pups sired per male over the entire trial was calculated. Mean pup number and SEM were used to determine differences in average number of […]
# fig. S21. Protocol timelines of mouse breeding and reversibility study. (A) Protocol 1 represents the 15 mg/kg twice per day drug dosing of CDD-2807. Samples were collected at euthanasia on day 45 from half of the male mice, allow ing for the completion of the 30-day breeding data to be collected and to give the male mice sufficient time with their female counterparts to initiate the day 60 breeding data. After completion of the entire 60-day breeding data, protocol 1 mice were then “rested” for 21 days prior to measuring their recovery period where they were housed with females to determine fertility. ( B) Protocol 2 represents the 50 mg/kg per day drug dosing of CDD-2807. Samples were collected at euthanasia on day 63 from half of the male mice; this allowed for the entire completion of the initial breeding data prior to collections. […]
# [1] = HEK293 cells, 2 hours incubation
# Chain of CLK1 (P49759 whole entry): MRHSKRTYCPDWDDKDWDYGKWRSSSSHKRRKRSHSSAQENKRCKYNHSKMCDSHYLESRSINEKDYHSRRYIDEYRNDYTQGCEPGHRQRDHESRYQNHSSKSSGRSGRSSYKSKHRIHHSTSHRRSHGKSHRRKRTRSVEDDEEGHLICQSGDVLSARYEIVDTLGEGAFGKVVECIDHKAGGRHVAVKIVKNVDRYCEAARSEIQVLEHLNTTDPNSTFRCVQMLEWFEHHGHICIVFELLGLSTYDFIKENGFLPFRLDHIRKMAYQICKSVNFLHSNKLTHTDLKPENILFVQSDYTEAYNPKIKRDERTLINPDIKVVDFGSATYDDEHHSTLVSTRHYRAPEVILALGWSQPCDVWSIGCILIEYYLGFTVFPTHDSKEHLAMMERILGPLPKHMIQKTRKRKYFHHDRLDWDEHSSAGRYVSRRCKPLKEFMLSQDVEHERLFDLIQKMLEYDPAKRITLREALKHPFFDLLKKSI
# Chain of RET (P07949 29-1114): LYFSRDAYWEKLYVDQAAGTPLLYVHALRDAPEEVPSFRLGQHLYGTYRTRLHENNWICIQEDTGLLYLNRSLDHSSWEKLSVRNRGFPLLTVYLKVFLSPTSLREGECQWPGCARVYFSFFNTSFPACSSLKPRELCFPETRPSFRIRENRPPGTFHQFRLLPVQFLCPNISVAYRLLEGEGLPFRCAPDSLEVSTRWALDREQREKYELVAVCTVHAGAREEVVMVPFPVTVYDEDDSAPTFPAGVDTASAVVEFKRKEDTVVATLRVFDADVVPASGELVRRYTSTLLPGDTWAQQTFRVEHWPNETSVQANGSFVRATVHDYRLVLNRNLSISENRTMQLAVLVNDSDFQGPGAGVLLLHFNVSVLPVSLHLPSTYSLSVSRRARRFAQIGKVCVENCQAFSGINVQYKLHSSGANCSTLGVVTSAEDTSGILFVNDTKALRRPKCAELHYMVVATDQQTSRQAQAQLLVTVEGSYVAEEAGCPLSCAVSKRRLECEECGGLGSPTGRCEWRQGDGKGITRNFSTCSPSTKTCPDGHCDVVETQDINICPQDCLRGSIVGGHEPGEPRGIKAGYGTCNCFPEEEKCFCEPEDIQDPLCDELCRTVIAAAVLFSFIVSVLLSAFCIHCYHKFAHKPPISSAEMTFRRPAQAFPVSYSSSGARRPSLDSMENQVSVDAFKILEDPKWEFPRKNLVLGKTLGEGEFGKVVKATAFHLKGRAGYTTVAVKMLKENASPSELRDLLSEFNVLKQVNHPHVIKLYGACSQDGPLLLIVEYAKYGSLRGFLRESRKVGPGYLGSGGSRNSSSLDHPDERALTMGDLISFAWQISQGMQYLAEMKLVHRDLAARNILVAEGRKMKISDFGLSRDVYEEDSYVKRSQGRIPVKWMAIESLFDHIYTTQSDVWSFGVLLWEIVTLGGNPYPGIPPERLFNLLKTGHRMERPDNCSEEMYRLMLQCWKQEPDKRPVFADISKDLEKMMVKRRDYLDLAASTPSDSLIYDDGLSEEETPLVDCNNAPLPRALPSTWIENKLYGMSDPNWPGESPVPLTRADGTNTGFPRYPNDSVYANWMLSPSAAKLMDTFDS
# Chain of CLK4 (Q9HAZ1 whole entry): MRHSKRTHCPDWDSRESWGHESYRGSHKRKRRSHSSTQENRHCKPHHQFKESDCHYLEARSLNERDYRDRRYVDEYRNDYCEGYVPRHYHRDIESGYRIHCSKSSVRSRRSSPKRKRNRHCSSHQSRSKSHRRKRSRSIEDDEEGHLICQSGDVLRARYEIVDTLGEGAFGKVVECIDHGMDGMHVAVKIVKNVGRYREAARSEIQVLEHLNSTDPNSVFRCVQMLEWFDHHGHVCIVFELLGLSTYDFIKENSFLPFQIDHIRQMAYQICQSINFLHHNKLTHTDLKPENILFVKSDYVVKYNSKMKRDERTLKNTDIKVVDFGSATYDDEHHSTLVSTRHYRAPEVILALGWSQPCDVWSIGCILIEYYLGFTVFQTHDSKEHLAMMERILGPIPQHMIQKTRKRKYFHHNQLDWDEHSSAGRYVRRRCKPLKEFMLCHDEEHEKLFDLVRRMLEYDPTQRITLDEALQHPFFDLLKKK
# Chain of CLK2 (P49760 whole entry): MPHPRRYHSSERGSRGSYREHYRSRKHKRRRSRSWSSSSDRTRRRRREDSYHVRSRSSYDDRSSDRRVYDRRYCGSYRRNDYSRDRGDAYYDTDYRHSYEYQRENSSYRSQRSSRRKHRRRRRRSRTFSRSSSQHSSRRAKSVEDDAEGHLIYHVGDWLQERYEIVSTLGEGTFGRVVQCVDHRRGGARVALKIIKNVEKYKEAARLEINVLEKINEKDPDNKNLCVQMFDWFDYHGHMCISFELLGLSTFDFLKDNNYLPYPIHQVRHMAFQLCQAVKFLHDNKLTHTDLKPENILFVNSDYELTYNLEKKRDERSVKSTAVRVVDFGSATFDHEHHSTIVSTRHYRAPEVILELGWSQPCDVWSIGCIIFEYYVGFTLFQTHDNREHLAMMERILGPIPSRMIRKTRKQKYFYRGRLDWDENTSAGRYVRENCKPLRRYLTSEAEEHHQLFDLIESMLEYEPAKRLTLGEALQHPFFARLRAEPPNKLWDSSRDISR
structure (smiles),measurement,setting,value
O=C(c1ccc2[nH]nc(C#Cc3ccccc3-c3ccccc3)c2c1)N1CC2(CCCNC2)C1 [CDD-2807],IC50,CLK1; [1],116 nM
same,Fold NanoBRET IC50 CLK1 over STK33 (in parentheses),CLK1; selectivity vs STK33,13 X
same,IC50,RET; [1],363 nM
same,Fold NanoBRET IC50 RET over STK33 (in parentheses),RET; selectivity vs STK33,39 X
same,IC50,CLK2; [1],101 nM
same,Fold NanoBRET IC50 CLK2 over STK33 (in parentheses),CLK2; selectivity vs STK33,11 X
same,IC50,CLK4; [1],85 nM
same,Fold NanoBRET IC50 CLK4 over STK33 (in parentheses),CLK4; selectivity vs STK33,9 X
same,litters per male,"male mice; protocol 1 (15 mg/kg i.p. twice per day), month 1",1.0 ± 0.37 litters per male
same,pups per female per litter,"male mice; protocol 1, month 1",0.92 ± 0.34 pups per female per litter
same,treated males that sired litters,"male mice; protocol 1, month 1",four of the six
same,litters produced by females housed with treated males,"male mice; protocol 1, month 2",no litters
same,pups per litter per female after recovery,"male mice; protocol 1, treatment halted at day 63, 21 days rest, first month of breeding",7.67 ± 0.61 pups per litter per female
same,pups per litter per female,"male mice; protocol 2 (50 mg/kg/day i.p.), month 1",0.07 ± 0.07 pups per litter per female
same,time to sire first litters after treatment (fertility resumption),"male mice; protocol 2, after completion of treatment",53.5 ± 5.1 days
same,litters sired,"male mice; protocol 2, month 2",did not sire any litters
